Source: patent US12415794B2 (Edgewise Therapeutics, Inc., priority 2018, dated 2025)

Columns and labels:
[1] = biological target: skeletal myofibrils (myosin ATPase); assay: Skeletal Myofibril ATPase Assay; assay type: biochemical; settings: Table 4C
Outline: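 Rates of NADH loss (A340, kinetic read over 45 min) report ADP generation by myofibrillar myosin, coupled through pyruvate kinase and lactate dehydrogenase; pCa buffer at pH 7.0. IC50 fitted by 4-parameter logistic after normalizing to 1% DMSO controls; cardiac myofibrils served for selectivity.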

[2] = biological target: T1, cardiac myofibrils (myosin ATPase); assay: Cardiac Myofibril ATPase Assay (counter screen); assay type: biochemical; settings: myofibrils 1.0 mg/mL, KCl omitted, Table 5C
T1 construct: frozen myofibril pellets obtained from cardiac tissue; from tissue
T1 sequence (P12883 whole entry): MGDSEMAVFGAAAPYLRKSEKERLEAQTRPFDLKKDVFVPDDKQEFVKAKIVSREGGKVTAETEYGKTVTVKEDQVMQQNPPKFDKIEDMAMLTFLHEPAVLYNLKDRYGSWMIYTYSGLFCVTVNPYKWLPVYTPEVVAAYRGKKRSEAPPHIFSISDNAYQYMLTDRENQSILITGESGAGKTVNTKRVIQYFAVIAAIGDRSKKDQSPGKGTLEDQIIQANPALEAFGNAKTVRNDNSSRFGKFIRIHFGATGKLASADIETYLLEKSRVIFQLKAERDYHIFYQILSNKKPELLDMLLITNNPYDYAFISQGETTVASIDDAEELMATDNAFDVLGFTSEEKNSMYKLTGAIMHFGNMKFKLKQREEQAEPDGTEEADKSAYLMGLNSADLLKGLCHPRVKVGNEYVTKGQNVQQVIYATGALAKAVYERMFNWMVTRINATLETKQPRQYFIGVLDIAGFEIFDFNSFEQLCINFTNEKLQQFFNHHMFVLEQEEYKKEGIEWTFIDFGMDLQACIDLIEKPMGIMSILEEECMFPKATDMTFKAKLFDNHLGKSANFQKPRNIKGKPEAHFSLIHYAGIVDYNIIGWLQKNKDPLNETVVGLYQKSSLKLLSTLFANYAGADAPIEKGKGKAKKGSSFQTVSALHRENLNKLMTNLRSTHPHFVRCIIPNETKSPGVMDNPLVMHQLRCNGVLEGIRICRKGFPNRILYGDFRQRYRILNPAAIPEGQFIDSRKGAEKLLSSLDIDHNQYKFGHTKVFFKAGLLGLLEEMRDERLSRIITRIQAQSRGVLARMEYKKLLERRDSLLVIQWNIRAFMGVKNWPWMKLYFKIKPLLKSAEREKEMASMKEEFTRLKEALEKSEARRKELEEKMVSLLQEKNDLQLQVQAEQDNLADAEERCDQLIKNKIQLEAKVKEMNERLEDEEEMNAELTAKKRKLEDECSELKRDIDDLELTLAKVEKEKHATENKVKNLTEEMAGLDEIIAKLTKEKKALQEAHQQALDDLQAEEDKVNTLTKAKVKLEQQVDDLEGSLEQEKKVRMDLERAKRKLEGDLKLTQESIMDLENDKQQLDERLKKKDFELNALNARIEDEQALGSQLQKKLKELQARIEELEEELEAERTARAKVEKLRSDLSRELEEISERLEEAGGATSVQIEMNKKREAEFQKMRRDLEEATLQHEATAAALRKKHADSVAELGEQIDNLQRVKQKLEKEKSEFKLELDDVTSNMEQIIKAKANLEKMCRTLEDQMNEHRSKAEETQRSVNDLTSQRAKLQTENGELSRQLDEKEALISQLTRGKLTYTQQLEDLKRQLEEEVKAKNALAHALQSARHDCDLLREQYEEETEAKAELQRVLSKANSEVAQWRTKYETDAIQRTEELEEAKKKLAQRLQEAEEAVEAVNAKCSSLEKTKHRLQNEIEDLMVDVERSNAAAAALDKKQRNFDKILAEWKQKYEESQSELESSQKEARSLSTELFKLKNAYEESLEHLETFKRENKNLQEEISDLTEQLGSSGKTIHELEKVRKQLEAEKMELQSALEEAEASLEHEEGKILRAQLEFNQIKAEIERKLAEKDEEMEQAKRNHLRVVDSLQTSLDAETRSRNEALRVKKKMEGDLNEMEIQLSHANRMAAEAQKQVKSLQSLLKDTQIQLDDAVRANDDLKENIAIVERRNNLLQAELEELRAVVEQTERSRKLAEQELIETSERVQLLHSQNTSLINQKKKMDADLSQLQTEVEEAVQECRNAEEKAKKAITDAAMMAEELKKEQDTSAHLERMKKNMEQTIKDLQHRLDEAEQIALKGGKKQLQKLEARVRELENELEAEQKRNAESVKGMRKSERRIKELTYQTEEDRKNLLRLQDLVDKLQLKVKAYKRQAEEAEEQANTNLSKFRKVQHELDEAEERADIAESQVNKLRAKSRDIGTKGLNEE
T1 sequence (P08590 whole entry partner): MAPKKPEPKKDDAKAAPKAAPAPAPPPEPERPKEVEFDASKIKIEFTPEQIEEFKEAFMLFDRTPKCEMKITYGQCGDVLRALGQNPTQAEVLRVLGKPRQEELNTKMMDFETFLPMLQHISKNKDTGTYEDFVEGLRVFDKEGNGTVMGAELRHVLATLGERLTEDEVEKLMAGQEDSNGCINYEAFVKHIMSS
T1 sequence (P10916 whole entry partner): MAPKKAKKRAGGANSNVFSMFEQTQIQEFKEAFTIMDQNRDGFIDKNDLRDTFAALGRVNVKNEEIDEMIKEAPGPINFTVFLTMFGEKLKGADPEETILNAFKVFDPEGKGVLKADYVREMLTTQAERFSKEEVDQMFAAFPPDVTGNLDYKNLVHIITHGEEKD
Outline: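 Myosin ATPase rate followed via NADH disappearance at 340 nm, coupled through pyruvate kinase and lactate dehydrogenase, using cardiac myofibril pellets (final 1.0 mg/mL) without KCl. IC50 values reflect rate reduction compared with vehicle-treated wells.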

COc1ccc(-c2ccc(=O)n(CC(=O)NC(C)c3ccccc3Cl)n2)cc1 (centres unmarked) [IIIa-25, N-(1-(2-chlorophenyl)ethyl)-2-(3-(4-methoxyphenyl)-6-oxopyridazin-1(6H)-yl)acetamide]
IC50 [1]: 10 to 100 µM | IC50 [2]: > 100 µM

COc1ccc(-c2ccc(=O)n(CC(=O)NCc3ccon3)n2)cc1 [IIIa-26]
IC50 [1]: 10 to 100 µM | IC50 [2]: > 100 µM

COc1ccc(-c2ccc(=O)n(CC(=O)NCc3cnccn3)n2)cc1 [IIIa-28, 2-(3-(4-methoxyphenyl)-6-oxopyridazin-1(6H)-yl)-N-(pyrazin-2-ylmethyl)acetamide]
IC50 [1]: > 100 µM | IC50 [2]: > 100 µM

COc1ccc(-c2ccc(=O)n(CC(=O)NCC3CCOCC3)n2)cc1 [IIIa-29, 2-(3-(4-methoxyphenyl)-6-oxopyridazin-1(6H)-yl)-N-((tetrahydro-2H-pyran-4-yl)methyl) acetamide]
IC50 [1]: > 100 µM | IC50 [2]: > 100 µM

COc1ccc(-c2ccc(=O)n(CC(=O)NCc3ccccn3)n2)cc1 [IIIa-30, 2-(3-(4-methoxyphenyl)-6-oxopyridazin-1(6H)-yl)-N-(pyridin-2-ylmethyl) acetamide]
IC50 [1]: > 100 µM | IC50 [2]: > 100 µM

COc1ccc(-c2ccc(=O)n(CC(=O)NCc3cnoc3)n2)cc1 [IIIa-31, N-(isoxazol-4-ylmethyl)-2-(3-(4-methoxyphenyl)-6-oxopyridazin-1(6H)-yl)acetamide]
IC50 [1]: > 100 µM | IC50 [2]: > 100 µM

COc1ccc(-c2ccc(=O)n(CC(=O)NCc3cnn(C)c3)n2)cc1 [IIIa-32, 2-(3-(4-methoxyphenyl)-6-oxopyridazin-1(6H)-yl)-N-((1-methyl-1H-pyrazol-4-yl)methyl) acetamide]
IC50 [1]: > 100 µM | IC50 [2]: > 100 µM

COc1ccc(-c2ccc(=O)n(CC(=O)NCc3nccn3C)n2)cc1 [IIIa-33, 2-(3-(4-methoxyphenyl)-6-oxopyridazin-1(6H)-yl)-N-((1-methyl-1H-imidazol-2-yl)methyl) acetamide]
IC50 [1]: > 100 µM | IC50 [2]: > 100 µM

COc1ccc(-c2ccc(=O)n(CC(=O)NCc3ccno3)n2)cc1 [IIIa-34, N-(isoxazol-5-ylmethyl)-2-(3-(4-methoxyphenyl)-6-oxopyridazin-1(6H)-yl)acetamide]
IC50 [1]: > 100 µM | IC50 [2]: > 100 µM

COc1ccc(-c2ccc(=O)n(CC(=O)NCc3ccccc3Cl)n2)cc1 [IIIb-1, N-(2-chlorobenzyl)-2-(3-(4-methoxyphenyl)-6-oxopyridazin-1(6H)-yl)acetamide]
IC50 [1]: < 10 µM | IC50 [2]: > 100 µM

COc1ccc(-c2ccc(=O)n(CC(=O)Nc3cccc4[nH]ccc34)n2)c(F)c1 [IIIb-2, 2-(3-(2-fluoro-4-methoxyphenyl)-6-oxopyridazin-1(6H)-yl)-N-(1H-indol-4-yl)acetamide]
IC50 [1]: < 10 µM | IC50 [2]: > 100 µM

COc1ccc(-c2ccc(=O)n(CC(=O)Nc3cccc4[nH]ccc34)n2)cc1 [IIIb-3, N-(1H-indol-4-yl)-2-(3-(4-methoxyphenyl)-6-oxopyridazin-1(6H)-yl)acetamide]
IC50 [1]: < 10 µM | IC50 [2]: > 100 µM

COc1ccc(-c2ccc(=O)n(CC(=O)Nc3cccc4c3ccn4C)n2)cc1 [IIIb-4, 2-(3-(4-methoxyphenyl)-6-oxopyridazin-1(6H)-yl)-N-(1-methyl-1H-indol-4-yl)acetamide]
IC50 [1]: < 10 µM | IC50 [2]: 10 to 100 µM

CC(C)c1cccc(NC(=O)Cn2nc(-c3ccc4c(c3)OCCCO4)ccc2=O)c1 [IIIb-5, 2-(3-(3,4-dihydro-2H-benzo[b][1,4]dioxepin-7-yl)-6-oxopyridazin-1(6H)-yl)-N-(3-isopropylphenyl) acetamide]
IC50 [1]: < 10 µM | IC50 [2]: 10 to 100 µM

O=C(Cn1nc(-c2ccc3c(c2)OCCO3)ccc1=O)Nc1ccccc1F [IIIb-6, 2-(3-(2,3-dihydrobenzo[b][1,4]dioxin-6-yl)-6-oxopyridazin-1(6H)-yl)-N-(2-fluorophenyl)acetamide]
IC50 [1]: < 10 µM | IC50 [2]: 10 to 100 µM

COc1ccc(-c2ccc(=O)n(CC(=O)NCCC3=CCCCC3)n2)c(F)c1 [IIIb-7, N-(2-(cyclohex-1-en-1-yl)ethyl)-2-(3-(2-fluoro-4-methoxyphenyl)-6-oxopyridazin-1(6H)-yl)acetamide]
IC50 [1]: < 10 µM | IC50 [2]: > 100 µM

COc1ccc(-c2ccc(=O)n(CC(=O)NC3Cc4ccccc4C3)n2)cc1 [IIIb-8, N-(2,3-dihydro-1H-inden-2-yl)-2-(3-(4-methoxyphenyl)-6-oxopyridazin-1(6H)-yl)acetamide]
IC50 [1]: < 10 µM | IC50 [2]: > 100 µM

COc1ccc(-c2ccc(=O)n(CC(=O)NCCc3ccccc3)n2)c(F)c1 [IIIb-9, 2-(3-(2-fluoro-4-methoxyphenyl)-6-oxopyridazin-1(6H)-yl)-N-phenethylacetamide]
IC50 [1]: < 10 µM | IC50 [2]: > 100 µM

COc1ccc(-c2ccc(=O)n(CC(=O)Nc3cc(Cl)ccc3Cl)n2)cc1 [IIIb-10, N-(2,5-dichlorophenyl)-2-(3-(4-methoxyphenyl)-6-oxopyridazin-1(6H)-yl)acetamide]
IC50 [1]: < 10 µM | IC50 [2]: > 100 µM

COc1ccc(-c2ccc(=O)n(CC(=O)Nc3ccc(Cl)cc3Cl)n2)cc1 [IIIb-11, N-(2,4-dichlorophenyl)-2-(3-(4-methoxyphenyl)-6-oxopyridazin-1(6H)-yl)acetamide]
IC50 [1]: < 10 µM | IC50 [2]: > 100 µM

COc1ccc(-c2ccc(=O)n(CC(=O)Nc3cc(Cl)ccc3Cl)n2)c(F)c1 [IIIb-13, N-(2,5-dichlorophenyl)-2-(3-(2-fluoro-4-methoxyphenyl)-6-oxopyridazin-1(6H)-yl)acetamide]
IC50 [1]: < 10 µM | IC50 [2]: > 100 µM

COc1ccc(-c2ccc(=O)n(CC(=O)NCCC3=CCCCC3)n2)cc1 [IIIb-14, N-(2-(cyclohex-1-en-1-yl)ethyl)-2-(3-(4-methoxyphenyl)-6-oxopyridazin-1(6H)-yl)acetamide]
IC50 [1]: < 10 µM | IC50 [2]: > 100 µM

COc1ccc(-c2ccc(=O)n(CC(=O)Nc3ccc4c(c3)OCCO4)n2)c(F)c1 [IIIb-15, N-(2,3-dihydrobenzo[b][1,4]dioxin-6-yl)-2-(3-(2-fluoro-4-methoxyphenyl)-6-oxopyridazin-1(6H)-yl)acetamide]
IC50 [1]: < 10 µM | IC50 [2]: > 100 µM

COc1ccc(-c2ccc(=O)n(CC(=O)Nc3ccc4c(c3)OCCO4)n2)cc1 [IIIb-16, N-(2,3-dihydrobenzo[b][1,4]dioxin-6-yl)-2-(3-(4-methoxyphenyl)-6-oxopyridazin-1(6H)-yl)acetamide]
IC50 [1]: < 10 µM | IC50 [2]: > 100 µM

O=C(Cn1nc(-c2ccc3c(c2)OCCO3)ccc1=O)Nc1ccccc1F [IIIb-17, 2-(3-(2,3-dihydrobenzo[b][1,4]dioxin-6-yl)-6-oxopyridazin-1(6H)-yl)-N-(2-fluorophenyl)acetamide]
IC50 [1]: < 10 µM | IC50 [2]: > 100 µM

COc1ccc(-c2ccc(=O)n(CC(=O)NC(C)C)n2)cc1 [IIIb-18, N-isopropyl-2-(3-(4-methoxyphenyl)-6-oxopyridazin-1(6H)-yl)acetamide]
IC50 [1]: 10 to 100 µM | IC50 [2]: > 100 µM

COc1ccc(-c2ccc(=O)n(CC(=O)NC(C)C)n2)c(F)c1 [IIIb-19, 2-(3-(2-fluoro-4-methoxyphenyl)-6-oxopyridazin-1(6H)-yl)-N-isopropylacetamide]
IC50 [1]: 10 to 100 µM | IC50 [2]: > 100 µM

COc1ccc(-c2ccc(=O)n(CC(=O)NCc3ccccc3)n2)cc1 [IIIb-20, N-benzyl-2-(3-(4-methoxyphenyl)-6-oxopyridazin-1(6H)-yl)acetamide]
IC50 [1]: 10 to 100 µM | IC50 [2]: > 100 µM
